Test results as given in patent publication US5190924A, “Peptide amides and amide dimers useful as muscle relaxants” (BOC Health Care, Inc., priority 1991, dated 1993).
Read-outs that look alike come from different tables or passages of the source.

Key:
neuromuscular junction [1] = assay: Mouse inclined screen grip strength test; type: in vivo; details: mice on 45° inclined screen; dose required to inhibit grip strength
Protocol: The first step, in mice, establishes a preliminary estimate of the potency and efficacy of the compounds. The animals were placed on a screen, inclined 45° to the horizontal. Effective doses caused the mice to lose their grip and slide down the inclined screen. […]

neuromuscular junction [2] = type: in vivo; details: for Neuromuscular Junction Blocking Activity (ED90), Rabbit: Table I, rabbit paw twitch; for ED90 (potency: dose required to depress twitch tension to 10% of control): Table II, anesthetized rabbits, marginal ear vein; for Duration (time from injection until train-of-four recovered to 75%) / HR (% change from pre-drug heart rate) / onset T85% (time from injection until 85% of maximal drug effect) / BP (% change of pre-drug blood pressure): rabbit
Source text: In a large series of similar telaxants, the rabbit dose is typically 125% of that in mice. The mechanism of action was also confirmed in this test by observing train-of-four and tetanus fade, post-tetanic potentiation of single twitches and administration of the anticholinesterase drug neostig- mine which reverses the relaxation. Reversibility, rapid onset and short duration are important factors to the anesthesiologist.
The following is a brief description of the methodologies used in rabbits to describe neuromuscular blocking activity of the subject compounds. A more detailed description of these methods is presented in "Microcomputer Use in Measuring Onset, Duration, and Recovery from Non-Depolarizing Skeletal Muscle Relaxants in Rabbits", P. D. Thut et al, Drug development Research 5:182, 1985.
Male New Zealand white rabbits weighing between 2.5 and 3.4 kg were anesthetized with pentobarbital (30 mg/kg) and placed on their backs upon a 40° C. water filled temperature regulation pad. Following tracheostomy, the lungs were mechanically ventilated at 28 breaths per minute with room air, using an open system delivering 200 mi/stroke. This ventilation maintained pCO2 at 38 mmHG and pO2 at 85 mmHg. Direct arterial blood pressure was measured from the right common carotid artery. The test compounds were administered through a canula placed in the marginal ear vein. Each foreleg was taped to a cushioned plate held in a femur clamp attached to the spinal board rack. The left centeral digit of each paw was connected to a force displacement transducer for measurement of muscle tension. Nerve stimulation was provided by pairs of pin electrodes placed on both sides of the ulnar nerve at the elbow of both forearms. The right ulnar nerve was stimulated at […] for 0.5 msec duration. The left ulnar nerve was similarly stimulated, every 15 seconds, with addition of interspersed trains-of-four and tetanizing stimuli. The parameters reported in Table II are: potency (ED90), which is the dose required to depress twitch tension to 10% of its control value; onset (T85%), which is the time from injection unit 85% of the maximal drug effect is achieved, duration, which is the time from injection until the train-of-four has recovered to 75%, blood pressure (BP), which is the percentage change of pre-drug blood pressure; and heart rate (HR), which is the percentage change from pre-drug heart rate.

[3] = equi-efficacious dose, arterial blood pressure

Structure (SMILES): C[N+](C)(C)C(Cc1ccccc1)C(=O)NCCCCCCNC(=O)C(Cc1ccccc1)[N+](C)(C)C.[I-].[I-] (stereo not drawn) [Compound A, Me3 N^+ -Phe-NH-(CH2)6 -NH-Phe-N^+ Me3 2I^-]
- Neuromuscular Junction Blocking Activity (ED90), Mouse (neuromuscular junction [1]): 7.940 mg/kg

Structure (SMILES): CC(C)CC(NC(=O)C(Cc1ccccc1)NC(=O)C(CC(C)C)[N+](C)(C)C)C(=O)NCCCCC[N+](C)(C)C.O=C([O-])C(F)(F)F.O=C([O-])C(F)(F)F (stereo not drawn) [Compound B, Me3 N^+ -Leu-Phe-Leu-NH-(CH2)5 -N^+ Me3 2(CF3 CO2)^=]
- Neuromuscular Junction Blocking Activity (ED90), Mouse (neuromuscular junction [1]): 3.981 mg/kg

Structure (SMILES): C[N+](C)(C)[C@@H](Cc1ccccc1)C(=O)NCCCCCCCCCCNC(=O)[C@H](Cc1ccccc1)[N+](C)(C)C [Compound C, bis-(N,N,N-trimethyl-L-phenylalanyl) -decane-1,10-diamide]
- Neuromuscular Junction Blocking Activity (ED90), Mouse (neuromuscular junction [1]): 1.259 mg/kg
- Neuromuscular Junction Blocking Activity (ED90), Rabbit (neuromuscular junction [2]): 4.408 mg/kg
- ED90 (potency: dose required to depress twitch tension to 10% of control) (neuromuscular junction [2]): 4.41 mg/kg
- Duration (time from injection until train-of-four recovered to 75%) (neuromuscular junction [2]; equi-efficacious dose): 17.4 min
- HR (% change from pre-drug heart rate) (neuromuscular junction [2]; equi-efficacious dose): -0.80 % change
- onset T85% (time from injection until 85% of maximal drug effect) (neuromuscular junction [2]; equi-efficacious dose): 37.60 s
- BP (% change of pre-drug blood pressure) (neuromuscular junction [2]; [3]): -40.30 % change

Structure (SMILES): CC(C)CC(NC(=O)C(Cc1ccccc1)[N+](C)(C)C)C(=O)NCC[N+](C)(C)C.O=C([O-])C(F)(F)F.O=C([O-])C(F)(F)F (stereo not drawn) [Compound D, Me3 N^+ -Phe-Leu-NH-(CH2)2 -N^+ Me3 2(CF3 CO2)^=]
- Neuromuscular Junction Blocking Activity (ED90), Mouse (neuromuscular junction [1]): 16.000 mg/kg
- Neuromuscular Junction Blocking Activity (ED90), Rabbit (neuromuscular junction [2]): 31.13 mg/kg
- ED90 (potency: dose required to depress twitch tension to 10% of control) (neuromuscular junction [2]): 31.13 mg/kg
- Duration (time from injection until train-of-four recovered to 75%) (neuromuscular junction [2]; equi-efficacious dose): 15.00 min
- HR (% change from pre-drug heart rate) (neuromuscular junction [2]; equi-efficacious dose): 4.60 % change
- onset T85% (time from injection until 85% of maximal drug effect) (neuromuscular junction [2]; equi-efficacious dose): 36.3 s
- BP (% change of pre-drug blood pressure) (neuromuscular junction [2]; [3]): -28.30 % change

Structure (SMILES): CC(C)CC(NC(=O)C(Cc1ccccc1)NC(=O)C(CC(C)C)[N+](C)(C)C)C(=O)NCCCCCCC[N+](C)(C)C [Compound E, N,N,N-trimethyl-L-leucyl-L-phenylalanyl-L-Leucine-(7-trimethylammonium) heptylamide]
- Neuromuscular Junction Blocking Activity (ED90), Mouse (neuromuscular junction [1]): 1.995 mg/kg

Structure (SMILES): COc1ccc(CC2c3cc(OC)c(OC)cc3CC[N+]2(C)CCC(=O)OCCCCCOC(=O)CC[N+]2(C)CCc3cc(OC)c(OC)cc3C2Cc2ccc(OC)c(OC)c2)cc1OC (stereo not drawn) [atracurium]
- Neuromuscular Junction Blocking Activity (ED90), Mouse (neuromuscular junction [1]): 0.631 mg/kg
- Neuromuscular Junction Blocking Activity (ED90), Rabbit (neuromuscular junction [2]): 0.050 mg/kg
- ED90 (potency: dose required to depress twitch tension to 10% of control) (neuromuscular junction [2]): 0.05 mg/kg
- Duration (time from injection until train-of-four recovered to 75%) (neuromuscular junction [2]; equi-efficacious dose): 14.30 min
- onset T85% (time from injection until 85% of maximal drug effect) (neuromuscular junction [2]; equi-efficacious dose): 126.90 s
- BP (% change of pre-drug blood pressure) (neuromuscular junction [2]; in vivo): -3.40 % change
- HR (% change from pre-drug heart rate) (neuromuscular junction [2]; in vivo): -1.00 % change

Structure (SMILES): CC(=O)O[C@H]1C[C@@H]2CC[C@@H]3[C@H](CC[C@@]4(C)[C@H]3C[C@H]([N+]3(C)CCCCC3)[C@@H]4OC(C)=O)[C@@]2(C)C[C@@H]1[N+]1(C)CCCCC1 [pancuronium]
- ED90 (potency: dose required to depress twitch tension to 10% of control) (neuromuscular junction [2]): 0.02 mg/kg
- Duration (time from injection until train-of-four recovered to 75%) (neuromuscular junction [2]; equi-efficacious dose): 32.50 min
- HR (% change from pre-drug heart rate) (neuromuscular junction [2]; equi-efficacious dose): 0.00 % change
- onset T85% (time from injection until 85% of maximal drug effect) (neuromuscular junction [2]; equi-efficacious dose): 147.50 s
- BP (% change of pre-drug blood pressure) (neuromuscular junction [2]; [3]): 2.70 % change

Structure (SMILES): CC(=O)O[C@H]1C[C@@H]2CC[C@@H]3[C@H](CC[C@@]4(C)[C@H]3C[C@H]([N+]3(C)CCCCC3)[C@@H]4OC(C)=O)[C@@]2(C)C[C@@H]1N1CCCCC1 [vecuronium]
- Neuromuscular Junction Blocking Activity (ED90), Mouse (neuromuscular junction [1]): 0.025 mg/kg
- Neuromuscular Junction Blocking Activity (ED90), Rabbit (neuromuscular junction [2]): 0.020 mg/kg
- ED90 (potency: dose required to depress twitch tension to 10% of control) (neuromuscular junction [2]): 0.02 mg/kg
- Duration (time from injection until train-of-four recovered to 75%) (neuromuscular junction [2]; equi-efficacious dose): 16.80 min
- HR (% change from pre-drug heart rate) (neuromuscular junction [2]; equi-efficacious dose): -1.90 % change
- onset T85% (time from injection until 85% of maximal drug effect) (neuromuscular junction [2]; equi-efficacious dose): 97.30 s
- BP (% change of pre-drug blood pressure) (neuromuscular junction [2]; [3]): 1.10 % change
